Measured values taken from patent US12409179B2 (GENEROS BIOPHARMA LTD., priority 2019, dated 2025).

Columns and labels:
[1] = test system: rat adjuvant-induced arthritis model; assay: Embodiment 2: oral Nib1 and medium-dose methotrexate in rat adjuvant-induced arthritis model (joint score, paw volume, AUC); format: in vivo, Lewis rat; conditions: MTX 0.5 mpk, Nib1 5 mpk, Nib1 5 mpk + MTX 0.5 mpk; for Total area (AUC of changes in paw volume): Embodiment 2, Tofacitinib 5 mpk, in mL·day
[2] = test system: adjuvant-induced arthritis in rats; assay: Embodiment 3: oral Nib1 and methotrexate in adjuvant-induced arthritis in rats (joint score, paw volume, AUC); format: in vivo, Lewis rat; conditions: oral, Tofacitinib 5 mpk, MTX 0.05 mpk, Nib1 1 mpk, Nib1 1 mpk + MTX 0.05 mpk
[3] = test system: rheumatoid arthritis; conditions: cited from earlier work

C[C@@H]1CCN(C(=O)CC#N)C[C@@H]1N(C)c1ncnc2[nH]ccc12 [Tofacitinib]
Relative to G2 percentage (%) (AUC of changes in paw volume) ([1]; Embodiment 2, G2 = Vehicle, Tofacitinib 5 mpk): 44.3% | Total area (AUC of changes in paw volume) [1]: 16.61 | Clinical scoring of arthritis (sum of the scores of the quadrupedal joints), Average value ([1]; day 0, Tofacitinib 5 mpk): 0 | paw volume (right hind foot), Average value ([1]; day 0, Tofacitinib 5 mpk): 1.01 mL | Clinical scoring of arthritis (sum of the scores of the quadrupedal joints), Average value ([1]; day 7, Tofacitinib 5 mpk): 0.50 | paw volume (right hind foot), Average value ([1]; day 7, Tofacitinib 5 mpk): 1.57 mL | Clinical scoring of arthritis (sum of the scores of the quadrupedal joints), Average value ([1]; day 13, Tofacitinib 5 mpk): 1.38 | paw volume (right hind foot), Average value ([1]; day 13, Tofacitinib 5 mpk): 1.80 mL | Clinical scoring of arthritis (sum of the scores of the quadrupedal joints), Average value ([1]; day 15, Tofacitinib 5 mpk): 3.50 | paw volume (right hind foot), Average value ([1]; day 15, Tofacitinib 5 mpk): 1.81 mL | Clinical scoring of arthritis (sum of the scores of the quadrupedal joints), Average value ([1]; day 17, Tofacitinib 5 mpk): 4.88 | paw volume (right hind foot), Average value ([1]; day 17, Tofacitinib 5 mpk): 1.85 mL | Clinical scoring of arthritis (sum of the scores of the quadrupedal joints), Average value ([1]; day 20, Tofacitinib 5 mpk): 5.13 | paw volume (right hind foot), Average value ([1]; day 20, Tofacitinib 5 mpk): 1.90 mL | Clinical scoring of arthritis (sum of the scores of the quadrupedal joints), Average value ([1]; day 22, Tofacitinib 5 mpk): 5.25 | paw volume (right hind foot), Average value ([1]; day 22, Tofacitinib 5 mpk): 1.89 mL | Clinical scoring of arthritis (sum of the scores of the quadrupedal joints), Average value ([1]; day 24, Tofacitinib 5 mpk): 4.75 | paw volume (right hind foot), Average value ([1]; day 24, Tofacitinib 5 mpk): 1.81 mL | Clinical scoring of arthritis (sum of the scores of the quadrupedal joints), Average value ([1]; day 27, Tofacitinib 5 mpk): 4.50 | paw volume (right hind foot), Average value ([1]; day 27, Tofacitinib 5 mpk): 1.76 mL | Clinical scoring of arthritis (sum of the scores of the quadrupedal joints), Average value ([1]; day 29, Tofacitinib 5 mpk): 4.38 | paw volume (right hind foot), Average value ([1]; day 29, Tofacitinib 5 mpk): 1.74 mL | Clinical scoring of arthritis (sum of the scores of the quadrupedal joints), Average value ([1]; day 31, Tofacitinib 5 mpk): 4.38 | paw volume (right hind foot), Average value ([1]; day 31, Tofacitinib 5 mpk): 1.71 mL | Clinical scoring of arthritis (sum of the scores of the quadrupedal joints), Average value ([1]; day 34, Tofacitinib 5 mpk): 4.25 | paw volume (right hind foot), Average value ([1]; day 34, Tofacitinib 5 mpk): 1.01 mL | Relative to G2 percentage (%) (AUC of changes in paw volume) ([2]; Embodiment 3, G2 = Vehicle): 59.2% | Area under the curve AUC (ml*day) of changes in paw volume ([2]; Embodiment 3): 11.27 mL·days | Clinical scoring of arthritis (sum of the scores of the quadrupedal joints), Average value ([2]; day 0): 0.00 | volume of the right hind foot, Average value ([2]; day 0): 1.31 mL | Clinical scoring of arthritis (sum of the scores of the quadrupedal joints), Average value ([2]; day 8): 0.33 | volume of the right hind foot, Average value ([2]; day 8): 1.40 mL | Clinical scoring of arthritis (sum of the scores of the quadrupedal joints), Average value ([2]; day 11): 2.67 | volume of the right hind foot, Average value ([2]; day 11): 1.76 mL | Clinical scoring of arthritis (sum of the scores of the quadrupedal joints), Average value ([2]; day 13): 4.33 | Clinical scoring of arthritis (sum of the scores of the quadrupedal joints), Average value ([2]; day 15): 5.67 | volume of the right hind foot, Average value ([2]; day 15): 2.27 mL | Clinical scoring of arthritis (sum of the scores of the quadrupedal joints), Average value ([2]; day 18): 6.33 | volume of the right hind foot, Average value ([2]; day 18): 2.40 mL | Clinical scoring of arthritis (sum of the scores of the quadrupedal joints), Average value ([2]; day 21): 6.22 | volume of the right hind foot, Average value ([2]; day 22): 2.52 mL | Clinical scoring of arthritis (sum of the scores of the quadrupedal joints), Average value ([2]; day 24): 5.33

CN(Cc1cnc2nc(N)nc(N)c2n1)c1ccc(C(=O)N[C@@H](CCC(=O)O)C(=O)O)cc1 [MTX, Methotrexate]
main side effects ([3]; rheumatoid arthritis therapy): liver and gastrointestinal toxicity | patients who stop taking the drug because of side effects ([3]; within a year): about 50% | Total area (AUC of changes in paw volume) [1]: 29.94 | Clinical scoring of arthritis (sum of the scores of the quadrupedal joints), Average value ([1]; day 0, Tofacitinib 5 mpk): 0 | paw volume (right hind foot), Average value ([1]; day 0, Tofacitinib 5 mpk): 1.02 mL | Clinical scoring of arthritis (sum of the scores of the quadrupedal joints), Average value ([1]; day 7, Tofacitinib 5 mpk): 0.75 | paw volume (right hind foot), Average value ([1]; day 7, Tofacitinib 5 mpk): 1.98 mL | Clinical scoring of arthritis (sum of the scores of the quadrupedal joints), Average value ([1]; day 13, Tofacitinib 5 mpk): 1.75 | paw volume (right hind foot), Average value ([1]; day 13, Tofacitinib 5 mpk): 2.10 mL | Clinical scoring of arthritis (sum of the scores of the quadrupedal joints), Average value ([1]; day 15, Tofacitinib 5 mpk): 5.50 | paw volume (right hind foot), Average value ([1]; day 15, Tofacitinib 5 mpk): 2.28 mL | Clinical scoring of arthritis (sum of the scores of the quadrupedal joints), Average value ([1]; day 17, Tofacitinib 5 mpk): 7.00 | paw volume (right hind foot), Average value ([1]; day 17, Tofacitinib 5 mpk): 2.43 mL | Clinical scoring of arthritis (sum of the scores of the quadrupedal joints), Average value ([1]; day 20, Tofacitinib 5 mpk): 7.50 | paw volume (right hind foot), Average value ([1]; day 20, Tofacitinib 5 mpk): 2.48 mL | Clinical scoring of arthritis (sum of the scores of the quadrupedal joints), Average value ([1]; day 22, Tofacitinib 5 mpk): 7.63 | paw volume (right hind foot), Average value ([1]; day 22, Tofacitinib 5 mpk): 2.50 mL | Clinical scoring of arthritis (sum of the scores of the quadrupedal joints), Average value ([1]; day 24, Tofacitinib 5 mpk): 7.63 | paw volume (right hind foot), Average value ([1]; day 24, Tofacitinib 5 mpk): 2.56 mL | Clinical scoring of arthritis (sum of the scores of the quadrupedal joints), Average value ([1]; day 27, Tofacitinib 5 mpk): 7.50 | paw volume (right hind foot), Average value ([1]; day 27, Tofacitinib 5 mpk): 2.62 mL | Clinical scoring of arthritis (sum of the scores of the quadrupedal joints), Average value ([1]; day 29, Tofacitinib 5 mpk): 7.63 | paw volume (right hind foot), Average value ([1]; day 29, Tofacitinib 5 mpk): 2.65 mL | Clinical scoring of arthritis (sum of the scores of the quadrupedal joints), Average value ([1]; day 31, Tofacitinib 5 mpk): 7.63 | paw volume (right hind foot), Average value ([1]; day 31, Tofacitinib 5 mpk): 2.66 mL | Clinical scoring of arthritis (sum of the scores of the quadrupedal joints), Average value ([1]; day 34, Tofacitinib 5 mpk): 7.50 | paw volume (right hind foot), Average value ([1]; day 34, Tofacitinib 5 mpk): 1.02 mL | Area under the curve AUC (ml*day) of changes in paw volume ([2]; Embodiment 3): 19.31 mL·days | Clinical scoring of arthritis (sum of the scores of the quadrupedal joints), Average value ([2]; day 0): 0.00 | volume of the right hind foot, Average value ([2]; day 0): 1.30 mL | Clinical scoring of arthritis (sum of the scores of the quadrupedal joints), Average value ([2]; day 8): 0.44 | volume of the right hind foot, Average value ([2]; day 8): 1.38 mL | Clinical scoring of arthritis (sum of the scores of the quadrupedal joints), Average value ([2]; day 11): 4.33 | volume of the right hind foot, Average value ([2]; day 11): 2.14 mL | Clinical scoring of arthritis (sum of the scores of the quadrupedal joints), Average value ([2]; day 13): 7.33 | Clinical scoring of arthritis (sum of the scores of the quadrupedal joints), Average value ([2]; day 15): 9.00 | volume of the right hind foot, Average value ([2]; day 15): 2.88 mL | Clinical scoring of arthritis (sum of the scores of the quadrupedal joints), Average value ([2]; day 18): 10.22 | volume of the right hind foot, Average value ([2]; day 18): 3.14 mL | Clinical scoring of arthritis (sum of the scores of the quadrupedal joints), Average value ([2]; day 21): 10.78 | Clinical scoring of arthritis (sum of the scores of the quadrupedal joints), Average value ([2]; day 24): 10.89
